These results are taken from US7449570B2, “Use of nucleoside compounds for nonsense suppression and the treatment of genetic diseases” (PTC Therapeutics, Inc., priority 2002, dated 2008).

In the first assay the test system is luciferase reporter construct containing a UGA premature termination codon. Kind of assay: cell-based luciferase reporter assay (nonsense suppression). Also on record: key: Compounds which were found to have either or both very high potency and very high efficacy of protein synthesis are classified as “***”; Compounds which were found to have significant potency and/or efficacy of protein synthesis were classified as “**”; compounds which were found to have potency and/or efficacy of protein synthesis were classified as “*”. The note with it: UGA premature termination codon luciferase reporter stably transfected in 293T Human Embryonic Kidney cells; qualitative potency/efficacy of protein synthesis; gentamicin internal standard. Here is the method:
Activity measurements in Table 1 were performed in a cell-based luciferase reporter assay (as described in Section 4.2) comprising a luciferase reporter construct containing a UGA premature termination codon that was stably transfected in 293T Human Embryonic Kidney cells. Gentamicin, a small molecule known to allow readthrough of premature termination codons, was used as an internal standard. Activity measurements are based on the qualitative ratio between the minimum concentration of compound required to produce a given protein in a cell versus the amount of protein produced by the cell at that concentration.
The test compounds identified in the nonsense suppression assay (for convenience referred to herein as a compound of the invention) can be tested for biological activity using host cells containing or engineered to contain the target RNA element coupled to a functional readout system. For example, the lead compound can be tested in a host cell engineered to contain the RNA with the premature translation termination codon controlling the expression of a reporter gene. In this example, the lead compounds are assayed in the presence or absence of the RNA with the premature translation termination codon. Compounds that modulate premature translation termination and/or nonsense-mediated mRNA decay in vivo will result in increased expression of the full-length gene, i.e., past the premature termination codon. Alternatively, a phenotypic or physiological readout can be used to assess activity of the target RNA with the premature translation termination codon in the presence and absence of the lead compound. Both the in vitro and in vivo nonsense suppression assays used herein and as described in International Patent Publication WO 01/44516, which is incorporated by reference herein in its entirety, can be used to identify lead compounds and can also be used to determine an EC50 for the lead compounds.
A stable cell line harboring the UGA nonsense-containing luciferase gene is treated with a test compound. Cells are grown in standard medium supplemented with 1% penicillin-streptomycin (P/S) and 10% fetal bovine serum (FBS) to 70% confluency and split 1:1 the day before treatment. The next day, cells are trypsinized and 40,000 cells are added to each well of a 96-well tissue culture dish. Serial dilutions of each compound are prepared to generate a six-point dose response curve spanning 2 logs (30 μM to 0.3 μM). The final concentration of the DMSO solvent remains constant at 1% in each well. Cells treated with 1% DMSO serve as the background standard, and cells treated with gentamicin serve as a positive control.
Background: In a reporter assay the amount or activity of a reporter protein is the signal.
For `Nc1ncnc(N[C@@H]2C[C@H](CO)[C@@H](O)[C@H]2O)c1[N+](=O)[O-]` [Compound 6, (1R,2S,3R,5R)-3-(6-Amino-5-nitro-pyrimidin-4-ylamino)-5-hydroxymethyl-cyclopentane-1,2-diol], the Activity amounted to 0.
With `Nc1ncnc(N[C@H]2C[C@@H](CO)[C@H](O)[C@@H]2O)c1[N+](=O)[O-]` [Compound 7, (1S,2R,3S,5S)-3-(6-Amino-5-nitro-pyrimidin-4-ylamino)-5-hydroxymethyl-cyclopentane-1,2-diol], the Activity worked out at 0.
Consider `Nc1ncnc(N[C@H]2O[C@H](CO)[C@@H](O)[C@H]2O)c1[N+](=O)[O-]` [Compound 22, 6-amino-5-nitro-4-(α-D-ribofuranosylamino)-pyrimidine], for which the Activity result is listed as “***”.
Take `Nc1ncnc(N[C@@H]2O[C@H](COC(=O)c3ccccc3)[C@@H](OC(=O)c3ccccc3)[C@H]2OC(=O)c2ccccc2)c1[N+](=O)[O-]` [Compound 24, 6-Amino-5-nitro-4-[(2,3,5-tri-O-benzoyl-β-D-ribofuranosyl)amino]pyrimidine]: the Activity entry is given as “**”.
The compound `COC(=O)c1c(Cl)ncnc1N[C@@H]1O[C@H](CO)[C@@H](O)[C@H]1O` [Compound 26, Methyl 6-chloro-4-(β-D-ribofuranosylamino)pyrimidine-5-carboxylate] returned an Activity of 0.
For `COC(=O)c1c(N)ncnc1N[C@H]1O[C@H](CO)[C@@H](O)[C@H]1O` [Compound 27, Methyl 6-amino-4-(α-D-ribofuranosylamino)pyrimidine-5-carboxylate], the Activity entry is given as “*”.

A further assay has as its system lysosomal tripeptidyl-peptidase 1 (TPP-I).
Test: not given
The note with it: patient-derived LINCL cell line, compound heterozygous for Arg208Stop and a different rare nonsense mutation; Sleat et al. 2001; cited from earlier work.
Turning to gentamicin, the “normal levels of TPP-I maximally restored” value is reported as “approximately 7%”.
